Source: patent publication US11938177B2, “Peptide vaccine formulations and use thereof for inducing an immune response” (The United States of America, as represented by the …, priority 2016, dated 2024)
Square brackets hold non-standard residues; d marks the D form. Ends that are not written are not given here. Peptide text beside a SMILES is read from it. Lys(N3) = [N-]=[N+]=NCCCC[C@H](N)C(=O)O

Assays:
[1] = Solubility of synthetic long peptides in aqueous buffer (PBS pH 7.4, bright field microscopy); assay type: physicochemical
Protocol: FIGS. 2A-2E: Impact of adjuvant and the composition of amino acids flanking minimal epitopes on CD8 T cell responses induced by synthetic long peptide vaccines. (2A and 2B) Synthetic long peptides delivering the minimal CTL epitope from Ovalbumin (OVA257-264: SIINFEKL, SEQ ID NO: 1) were prepared with either hydrophobic or hydrophilic flanking sequences to provide insoluble (LSI, 1) or soluble (LSS, 3) peptides alone or linked to a TLR-7/8a through a C-terminal azide to yield a LSI-7/8a (2) and LSS-7/8a (4). Bright field microscopy images are shown of […] at 0.1 mg/mL in PBS at pH 7.4. (2C) The TLR-7/8a adjuvant was delivered as either a small molecule (7/8a, 5) or as a particle (PP-7/8a, 6) with the peptide antigens. (2D and 2E) Long peptides (4 nmol) alone or admixed with or covalently attached to adjuvant (4 nmol) were subcutaneously administered into the hind footpads of mice at days 0 and 14. At day 28, tetramer+ CD8 T cell responses were evaluated from whole blood of mice (n=5-25).
FIGS. 4A-4G: Influence of neoantigen flanking sequences on long peptide morphology and CD8 T cell immunity. (4A) The sequences flanking two minimal CD8 T cell neoantigen epitopes, Reps1 (7) and Irgq (9), derived from murine MC38 […] were exchanged to create two chimeric synthetic long peptides, Reps1 FS (8) and Irgq FS (10). Bright field microscopy images are shown for peptides 7-10 at 0.1 mg/mL in PBS at pH 7.4. (4B-4G) The synthetic long peptide-based neoantigens (7-10) (4 nmol) were admixed with adjuvant (4 nmol) and subcutaneously administered into the hind footpads of C57BL/6 mice at days 0 and 14 and on day 28 whole blood was assessed for the percent of total CD8 T cells that were dextramer^+ for Reps1 (4B) and Irgq (4C); the percent of total CD8 T cells that were IFNγ following stimulation with either Reps1 (4D) or Irgq (4E); or, the percent of total CD4 T cells that were IFNγ following stimulation with either Reps1 (4F) or Irgq (4G). Data on log scale are reported as geometric mean with 95% confidence interval (CI). Data are representative of two or more independent experiments. Student's T test was used for comparison of 2 groups; ns, not significant (P>0.05); *, P<0.05; **, P<0.01.
Soluble: Capable of becoming molecularly or ionically dispersed in a solvent to form a homogeneous solution. […] Solubility can be determined visually or using spectroscopic techniques. Turbidity measurements allow for solubility determination indirectly by using a spectrophotometer to measure absorbance in the visible spectrum, typically between 300-500 nm; insoluble materials scatter light that reduces transmittance, leading to increases in measured absorbance (OD). Herein, absorbance measurements at 490 nm were used to assess solubility. […]

[2] = side chain group (epsilon amine; gamma carboxylic acid); cited from earlier work

Row | Compound | solubility in aqueous buffers [1] | pKa [2]
1 | CC[C@H](C)[C@H](NC(=O)[C@@H](NC(=O)[C@@H](N)CO)[C@@H](C)CC)C(=O)N[C@@H](CC(N)=O)C(=O)N[C@@H](Cc1ccccc1)C(=O)N[C@@H](CCC(=O)O)C(=O)N[C@@H](CCCCN)C(=O)N[C@@H](CC(C)C)C(=O)N[C@H](C(=O)N[C@@H](Cc1ccccc1)C(=O)N1CCC[C@H]1C(=O)N[C@@H](CCCNC(=N)N)C(=O)N[C@@H](CO)C(=O)N1CCC[C@H]1C(=O)N[C@H](C(=O)N[C@H](C(=O)N[C@@H](Cc1ccccc1)C(=O)N[C@@H](Cc1ccc(O)cc1)C(=O)N[C@@H](CC(N)=O)C(=O)N[C@H](C(=O)N1CCC[C@H]1C(=O)N1CCC[C@H]1C(=O)N[C@@H](CCSC)C(=O)N1CCC[C@H]1C(=O)N[C@@H](CC(C)C)C(=O)N1CCC[C@H]1C(=O)N1CCC[C@H]1C(=O)N[C@@H](CO)C(=O)N[C@@H](CCC(N)=O)C(=O)N[C@@H](CC(C)C)C(=O)N[C@@H](CCCCN=[N+]=[N-])C(=O)O)[C@@H](C)CC)C(C)C)[C@@H](C)O)C(C)C [LSI] | insoluble | 
2 | CC[C@H](C)[C@H](NC(=O)[C@@H](NC(=O)[C@@H](N)CO)[C@@H](C)CC)C(=O)N[C@@H](CC(N)=O)C(=O)N[C@@H](Cc1ccccc1)C(=O)N[C@@H](CCC(=O)O)C(=O)N[C@@H](CCCCN)C(=O)N[C@@H](CC(C)C)C(=O)N[C@H](C(=O)N[C@@H](CCCCN)C(=O)N1CCC[C@H]1C(=O)N[C@@H](CCCNC(=N)N)C(=O)N[C@@H](CO)C(=O)N1CCC[C@H]1C(=O)N[C@H](C(=O)N[C@@H](CCCNC(=N)N)C(=O)N[C@@H](Cc1ccccc1)C(=O)N[C@@H](CC(=O)O)C(=O)N[C@@H](CC(N)=O)C(=O)N[C@@H](CO)C(=O)N[C@@H](CCCCN)C(=O)N1CCC[C@H]1C(=O)N[C@@H](CO)C(=O)N1CCC[C@H]1C(=O)N[C@@H](CCC(=O)O)C(=O)N1CCC[C@H]1C(=O)N[C@@H](CCCCN)C(=O)N[C@@H](CO)C(=O)N[C@@H](CCC(N)=O)C(=O)N[C@@H](CC(=O)O)C(=O)N[C@@H](CCCCN=[N+]=[N-])C(=O)O)[C@@H](C)O)C(C)C [LSS] (H-SIINFEKLVKPRSPTRFDNSKPSPEPKSQD[Lys(N3)]-OH) | soluble | 
3 | NCCCC[C@H](N)C(=O)O [Lysine] |  | ~10.7
4 | GRVLELFRAAALLNSAVLQIMELCGATR [Irgq FS] | assembled into an aggregate | 
5 | KARDETAQLANDVVLGAAPLFVPPAD [Reps1 FS] | water-soluble | 
